Structures can show the parent of a compound that is named as a salt.
How the values were obtained:
[1] = tested on: Staphylococcus aureus NCTC 10649; test: In vivo antibacterial activity in mice (protection from lethal intraperitoneal infection); details: NCTC10649, 144 h, S. aureus, CF-1 female mice infected intraperitoneally with 100 times the LD50, treated at 1 and 5 hr after infection, cumulative mortalities on the sixth day
Protocol: (§1) The in vivo antibacterial activity of the compounds of the present invention was determined as follows: Aqueous solutions of the test compounds were prepared by dissolving the compound in distilled water, except for the compounds of examples 169 and 170 which were dissolved in a solution of 2% DMSO in distilled water.
(§2) After 18 hr incubation, a culture of Staphylococcus aureus NCTC 10649 was serially diluted by using 10-fold dilutions in 5% (w/v) hog gastric mucin. Cultures (0.5 mL) in a dilution from 10^-1 to 10^-8 were injected intraperitoneally into CF-1 female mice weighing approximately 20g. The LD50 (median lethal dose) for the test organism was calculated from the cumulative mortalities on the sixth day by the using the Reed and Muench procedure (Reed, L.J., and H. Muench, Amer. J. Hygiene, 27, 493 (1938)).
(§3) The above 18 hr culture was diluted in 5% (w/v) hog gastric mucin to obtain 100 times the LD50, and 0.5 mL was injected intraperitoneally into mice. The mice were treated subcutaneously (sc) or orally (po) with a specific amount of the test compound divided equally to be administered at 1 and 5 hr after infection. A group of 10 animals each for at least three dose levels was thus treated, and the deaths were recorded daily for 6 days. Ten mice were left untreated as infection control. ED50 values were calculated from the cumulative mortalities on the sixth day after infection by using the trimmed version of the Logit method ( Hamilton, M.A., R.C. Russo, and R.V. Thurston, Environ. Sci. Technol. 11, 714 (1977)).

Escherichia coli JUHL [2] = test: as above; details: 144 h, E. coli JUHL, mice infected intraperitoneally, treated at 1 and 5 hr after infection, cumulative mortalities on the sixth day
Protocol: as §1, §2, §3
The LD50 for Escherichia coli JUHL was determined in a manner similar to that above for S. aureus. The 18 hr cultures of this organism were also prepared for po and sc testing in mice, from which ED50 values were calculated. Positive controls were run with temafloxacin as the test compound, for which ED50 values were also calculated.

[3] = tested on: Staphylococcus aureus 1775; test: In vitro antibacterial activity, MIC by agar dilution; type: cell-based; details: BHI agar, 35-37°C, 20-24 hours, unit assumed
In short: (§4)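 Agar dilution; ~10^4 CFU/spot by replicator (1:100 dilution, 1:10 for slow growers); 35–37°C, ~20–24 h. MIC = lowest conc. with no growth (slight haze or sparse colonies allowed) vs drug-free BHI control; ciprofloxacin control.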

[4] = tested on: Pseudomonas aeruginosa 5263; test: as above; type: cell-based; details: BHI agar, 35-37°C, 20-24 hours, unit assumed
In short: as §4

[5] = tested on: Acinetobacter calcoaceticus CMX 669; test: as above; type: cell-based; details: BHI agar, 35-37°C, 20-24 hours, unit assumed
In short: as §4

Escherichia coli DC-2 = test: as above; type: cell-based; details: BHI agar, 35-37°C, 20-24 hours, unit assumed
In short: as §4

Escherichia coli H560 = test: as above; type: cell-based; details: BHI agar, 35-37°C, 20-24 hours, unit assumed
In short: as §4

[6] = tested on: Micrococcus luteus ATCC 4698; test: as above; type: cell-based; details: BHI agar, 35-37°C, 20-24 hours, unit assumed
In short: as §4

[7] = tested on: Providencia stuartii CMX 640; test: as above; type: cell-based; details: BHI agar, 35-37°C, 20-24 hours, unit assumed
In short: as §4

[8] = tested on: Streptococcus pyrogenes EES61; test: as above; type: cell-based; details: BHI agar, 35-37°C, 20-24 hours, unit assumed
In short: as §4

[9] = tested on: Enterococcus faecium ATCC 8043; test: as above; type: cell-based; details: BHI agar, 35-37°C, 20-24 hours, unit assumed
In short: as §4

[10] = tested on: Klebsiella pneumoniae ATCC 8045; test: as above; type: cell-based; details: BHI agar, 35-37°C, 20-24 hours, unit assumed
In short: as §4

[11] = tested on: Staphylococcus epidermidis 3519; test: as above; type: cell-based; details: BHI agar, 35-37°C, 20-24 hours, unit assumed
In short: as §4

[12] = tested on: Pseudomonas aeruginosa BMH10; test: as above; type: cell-based; details: BHI agar, 35-37°C, 20-24 hours, unit assumed
In short: as §4

[13] = tested on: Pseudomonas aeruginosa A5007; test: as above; type: cell-based; details: BHI agar, 35-37°C, 20-24 hours, unit assumed
In short: as §4

[14] = tested on: Staphylococcus aureus ATCC 6538P; test: as above; type: cell-based; details: BHI agar, 35-37°C, 20-24 hours, unit assumed
In short: as §4

Pseudomonas cepacia 296I = test: as above; type: cell-based; details: BHI agar, 35-37°C, 20-24 hours, unit assumed
In short: as §4

[15] = tested on: Streptococcus bovis A5169; test: as above; type: cell-based; details: BHI agar, 35-37°C, 20-24 hours, unit assumed
In short: as §4

[16] = tested on: Staphylococcus aureus A5177; test: as above; type: cell-based; details: BHI agar, 35-37°C, 20-24 hours, unit assumed
In short: as §4

[17] = tested on: Streptococcus pyrogenes CONST; test: as above; type: cell-based; details: BHI agar, 35-37°C, 20-24 hours, unit assumed
In short: as §4

[18] = tested on: Pseudomonas aeruginosa K799/61; test: as above; type: cell-based; details: BHI agar, 35-37°C, 20-24 hours, unit assumed
In short: as §4

Escherichia coli SS = test: as above; type: cell-based; details: BHI agar, 35-37°C, 20-24 hours, unit assumed
In short: as §4

Escherichia coli JUHL [19] = test: as above; type: cell-based; details: BHI agar, 35-37°C, 20-24 hours, unit assumed
In short: as §4

[20] = tested on: Staphylococcus aureus NCTC 10649; test: as above; type: cell-based; details: BHI agar, 35-37°C, 20-24 hours, unit assumed
In short: as §4

[21] = tested on: Streptococcus pyrogenes 2548 INDUC; test: as above; type: cell-based; details: BHI agar, 35-37°C, 20-24 hours, unit assumed
In short: as §4

[22] = tested on: Streptococcus agalactaciae CMX 508; test: as above; type: cell-based; details: BHI agar, 35-37°C, 20-24 hours, unit assumed
In short: as §4

[23] = tested on: Staphylococcus aureus CMX 553; test: as above; type: cell-based; details: BHI agar, 35-37°C, 20-24 hours, unit assumed
In short: as §4

Escherichia coli KNK 437 = test: as above; type: cell-based; details: BHI agar, 35-37°C, 20-24 hours, unit assumed
In short: as §4

[24] = tested on: Staphylococcus aureus 642A; test: as above; type: cell-based; details: BHI agar, 35-37°C, 20-24 hours, unit assumed
In short: as §4

[25] = tested on: Staphylococcus aureus A-5278; test: as above; type: cell-based; details: BHI agar, 35-37°C, 20-24 hours, unit assumed
In short: as §4

[26] = tested on: Enterobacter aerogenes ATCC 13048; test: as above; type: cell-based; details: BHI agar, 35-37°C, 20-24 hours, unit assumed
In short: as §4

[27] = tested on: Pseudomonas aeruginosa 2862; test: as above; type: cell-based; details: BHI agar, 35-37°C, 20-24 hours, unit assumed
In short: as §4

[28] = tested on: Micrococcus luteus ATCC 9341; test: as above; type: cell-based; details: BHI agar, 35-37°C, 20-24 hours, unit assumed
In short: as §4

[29] = tested on: Pseudomonas aeruginosa K799/WT; test: as above; type: cell-based; details: BHI agar, 35-37°C, 20-24 hours, unit assumed
In short: as §4

SMILES	ED50 ([1]; po) [mg/kg]	ED50 ([1]; sc) [mg/kg]	ED50 (Escherichia coli JUHL [2]; po) [mg/kg]	ED50 (Escherichia coli JUHL [2]; sc) [mg/kg]	MIC values [3] [µg/mL]	MIC values [4] [µg/mL]	MIC values [5] [µg/mL]	MIC values (Escherichia coli DC-2) [µg/mL]	MIC values (Escherichia coli H560) [µg/mL]	MIC values [6] [µg/mL]	MIC values [7] [µg/mL]	MIC values [8] [µg/mL]	MIC values [9] [µg/mL]	MIC values [10] [µg/mL]	MIC values [11] [µg/mL]	MIC values [12] [µg/mL]	MIC values [13] [µg/mL]	MIC values [14] [µg/mL]	MIC values (Pseudomonas cepacia 296I) [µg/mL]	MIC values [15] [µg/mL]	further results
CCC[C@H](N)C(=O)NC1CCN(c2nc3c(-c4ccc(F)cc4F)cc(C(=O)O)c(=O)n3cc2F)C1 (stereo partly drawn) [Example 166, 9-(2,4-Difluorophenyl)-3-fluoro-2-(3-(N-(S)-norvalyl)aminopyrrolidin-1-yl)-6H-6-oxopyrido[1,2-a]pyrimidine-7-carboxylic acid hydrochloride salt]	> 24	8	25	< 2.5	> 100	> 100	3.1	12.5	0.78	25	> 100	1.56	12.5	1.56	0.78	3.1	6.2	0.39	> 100	25	MIC values [16]: 1.56 µg/mL; MIC values [17]: 1.56 µg/mL; MIC values [18]: 0.39 µg/mL; MIC values (Escherichia coli SS): 0.05 µg/mL; MIC values (Escherichia coli JUHL [19]): 0.78 µg/mL; MIC values [20]: 0.39 µg/mL; MIC values [21]: 1.56 µg/mL; MIC values [22]: 3.1 µg/mL; MIC values [23]: 3.1 µg/mL; MIC values (Escherichia coli KNK 437): 6.2 µg/mL; MIC values [24]: 1.56 µg/mL; MIC values [25]: 1.56 µg/mL; MIC values [26]: 3.1 µg/mL; MIC values [27]: > 100 µg/mL; MIC values [28]: 50 µg/mL; MIC values [29]: 6.2 µg/mL
C[C@H](N)C(=O)NC1CCN(c2nc3c(-c4ccc(F)cc4F)cc(C(=O)O)c(=O)n3cc2F)C1 (stereo partly drawn) [Example 167, 2-(3-(N-(S)-Alanyl)aminopyrrolidin-1-yl)-9-(2,4-difluorophenyl)-3-fluoro-6H-6-oxopyrido[1,2-a]pyrimidine-7-carboxylic acid hydrochloride]	14.4	2.7	16.6	< 2.5	> 100	> 100	12.5	25	1.56	50	100	6.2	12.5	3.1	3.1	12.5	6.2	0.78	100	12.5	MIC values [16]: 3.1 µg/mL; MIC values [17]: 3.1 µg/mL; MIC values [18]: 1.56 µg/mL; MIC values (Escherichia coli SS): 0.05 µg/mL; MIC values (Escherichia coli JUHL [19]): 1.56 µg/mL; MIC values [20]: 0.78 µg/mL; MIC values [21]: 1.56 µg/mL; MIC values [22]: 6.2 µg/mL; MIC values [23]: 6.2 µg/mL; MIC values (Escherichia coli KNK 437): 25 µg/mL; MIC values [24]: 3.1 µg/mL; MIC values [25]: 1.56 µg/mL; MIC values [26]: 3.1 µg/mL; MIC values [27]: > 100 µg/mL; MIC values [28]: 50 µg/mL; MIC values [29]: 6.2 µg/mL
C[C@H](N)C(=O)N[C@@H](C)C(=O)NC1CCN(c2nc3c(-c4ccc(F)cc4F)cc(C(=O)O)c(=O)n3cc2F)C1 (stereo partly drawn) [Example 168, 2-(3-(N-(S)-Alanyl-(S)-alanyl)aminopyrrolidin-1-yl)-9-(2,4-difluorophenyl)-3-fluoro-6H-6-oxopyrido[1,2-a]pyrimidine-7-carboxylic acid hydrochloride]	3	2.8	14.3	< 2.5	> 100	> 100	12.5	25	0.78	50	100	6.2	12.5	3.1	3.1	3.1	12.5	0.78	> 100	12.5	MIC values [16]: 3.1 µg/mL; MIC values [17]: 3.1 µg/mL; MIC values [18]: 1.56 µg/mL; MIC values (Escherichia coli SS): 0.05 µg/mL; MIC values (Escherichia coli JUHL [19]): 0.78 µg/mL; MIC values [20]: 0.78 µg/mL; MIC values [21]: 1.56 µg/mL; MIC values [22]: 6.2 µg/mL; MIC values [23]: 6.2 µg/mL; MIC values (Escherichia coli KNK 437): 12.5 µg/mL; MIC values [24]: 3.1 µg/mL; MIC values [25]: 3.1 µg/mL; MIC values [26]: 3.1 µg/mL; MIC values [27]: > 100 µg/mL; MIC values [28]: 50 µg/mL; MIC values [29]: 6.2 µg/mL
C[C@H]1C[C@H](N)CN1c1nc2c(-c3ccc(F)cc3F)cc(C(=O)O)c(=O)n2cc1F [Example 171, 2-((2S,4S)-4-Amino-2-methylpyrrolidin-1-yl)-9-(2,4-difluorophenyl)-3-fluoro-6H-6-oxopyrido[1,2-a]pyrimidine-7-carboxylic acid hydrochloride]	12.8	> 8	> 20	4.8	50	50	0.05	0.78	0.02	0.78	6.2	0.78	0.78	0.01	0.2	0.2	0.39	0.1	6.2	1.56	MIC values [16]: 0.1 µg/mL; MIC values [17]: 0.78 µg/mL; MIC values [18]: 0.05 µg/mL; MIC values (Escherichia coli SS): 0.001 µg/mL; MIC values (Escherichia coli JUHL [19]): 0.02 µg/mL; MIC values [20]: 0.1 µg/mL; MIC values [21]: 0.39 µg/mL; MIC values [22]: 0.78 µg/mL; MIC values [23]: 0.2 µg/mL; MIC values (Escherichia coli KNK 437): 0.39 µg/mL; MIC values [24]: 0.2 µg/mL; MIC values [25]: 0.1 µg/mL; MIC values [26]: 0.1 µg/mL; MIC values [27]: 50 µg/mL; MIC values [28]: 3.1 µg/mL; MIC values [29]: 0.39 µg/mL
CC1CN(c2cc3c(cc2F)c(=O)c(C(=O)O)cn3-c2ccc(F)cc2F)CCN1 (stereo not shown) [temafloxacin, reference compound]	1.5	1.3	1.5	0.5	–	–	–	–	–	–	–	–	–	–	–	–	–	–	–	–	–

Reference: patent EP0527889B1, “QUINOLIZINONE TYPE COMPOUNDS” (priority 1990, dated 1991)
